Entries after “also recorded” stand apart in the source; their conditions may differ.
Columns and labels:
[1] = molecular target: T1, recombinant mouse Them1 (Mus musculus, UniProt Q8VHQ9); experiment: Acot activity assay, mouse Them1; format: biochemical; settings: in words (FIG. 6B)
T1 construct: made in house; host or cells: E. coli BL21 (DE3)
T1 sequence (Q8VHQ9 21-594): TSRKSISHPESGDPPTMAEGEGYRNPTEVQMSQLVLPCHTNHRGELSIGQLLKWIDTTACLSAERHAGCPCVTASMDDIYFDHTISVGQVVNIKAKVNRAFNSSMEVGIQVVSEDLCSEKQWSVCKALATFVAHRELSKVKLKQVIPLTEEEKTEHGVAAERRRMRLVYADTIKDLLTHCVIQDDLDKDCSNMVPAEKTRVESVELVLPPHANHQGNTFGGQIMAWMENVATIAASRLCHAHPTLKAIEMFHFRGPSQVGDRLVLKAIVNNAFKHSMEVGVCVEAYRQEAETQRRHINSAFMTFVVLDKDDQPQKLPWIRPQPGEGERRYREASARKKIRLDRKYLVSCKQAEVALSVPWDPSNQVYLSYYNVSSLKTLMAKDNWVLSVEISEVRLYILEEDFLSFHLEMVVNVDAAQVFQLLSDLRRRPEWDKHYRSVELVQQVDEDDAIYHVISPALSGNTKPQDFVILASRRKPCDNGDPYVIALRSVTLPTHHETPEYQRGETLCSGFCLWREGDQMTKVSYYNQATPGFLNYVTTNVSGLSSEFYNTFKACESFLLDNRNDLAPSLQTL
Source text: (Zhang et al., 1999). Values are show in the following Table.

[2] = molecular target: T2, Them1-ΔSTART (Homo sapiens, UniProt Q8WXI4); experiment: Microscale thermophoresis binding, Them1-ΔSTART; settings: for binding to Them1-ΔSTART: in words; for Kd: read-out: Kd, Thioesterase domains (Them1-ΔSTART ), MST, 100 nM labeled protein, 22° C.
T2 sequence (Q8WXI4 43-329 isoform Q8WXI4-2 limits assumed): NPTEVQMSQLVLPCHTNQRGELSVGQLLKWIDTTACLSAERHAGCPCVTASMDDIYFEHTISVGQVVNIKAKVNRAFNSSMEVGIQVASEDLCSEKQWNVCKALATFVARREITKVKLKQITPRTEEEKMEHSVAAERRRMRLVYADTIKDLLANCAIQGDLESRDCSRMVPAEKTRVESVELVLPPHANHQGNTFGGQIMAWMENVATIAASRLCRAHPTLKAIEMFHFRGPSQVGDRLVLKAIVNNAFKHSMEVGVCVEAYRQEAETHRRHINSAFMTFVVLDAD
Experimental: (§2) Data represent the mean (s.e.m.) of triplicate determinations. Where not visible, error bars are contained within the symbol sizes.
(§3) Reaction labeling recombinant full-length Them1, Them1l-ΔSTART, START or Acot12 with Monolith RED-Tris-NTA (NanoTemper Technologies; San Francisco, CA) were performed according to the manufacturer's instructions in buffer containing PBS plus 0.5% Tween-20 for 60 min at 22° C. with a molar dye: protein ratio=1:1. […] Working concentrations of compounds were prepared by diluting in microscale thermophoresis buffer. Reactions consisting of 100 nM of fluorescently labeled recombinant protein (full-length Them1, Them1-ΔSTART, START or Acot12) and compounds were loaded onto standard Monolith NT.115 Capillaries (NanoTemper Technologies; San Francisco, CA). Fluorescence was measured using a Monolith NT.115 instrument (NanoTemper Technologies; San Francisco, CA) at 22° C. with instrument parameters adjusted to 40% LED power and medium microscale thermophoresis power. Data were fitted by non-linear regression in GraphPad Prism (GraphPad Software; San Diego, CA).

[3] = in vitro; settings: C57BL/6, mouse, primary brown adipocytes
Experimental: Cytotoxicities of compounds were determined using a CellTiter-Glo® Luminescent Cell Viability Assay, which measures concentrations of ATP liberated from viable cells (Promega; Madison, WI). […] Tamoxifen (50 μM) was used as a (+) control. CellTiter-Glo reagent (10 μL) was added to each well and incubated on an orbital shaker for 10 min at 22° C. to induce cell lysis and stabilize the luminescent signal. Relative luminescent units (RLU) were determined using a NEO plate reader (BioTek, Winooski, VT).

[4] = system: primary hepatocytes; experiment: Oxygen consumption rates (OCR) in primary hepatocytes after palmitate; format: cell-based, mouse; settings: compound 33 μM, palmitate-BSA 300 μM
Experimental: (§1) Primary hepatocytes cultured were prepared from 6- to 14-w old wild type, L-Them1Tg and Them1^−/− mice following anesthesia with ketamine and xylazine. Livers were perfused through the portal vein with 20 mL of liver perfusion medium (Thermo Fisher; Walham, MA) followed by 40 mL of liver digestion medium (Thermo Fisher; Walham, MA). Primary hepatocytes were gently disrupted from the liver capsule into hepatocyte wash medium (Thermo Fisher; Waltham, MA), filtered through a 70 μm cell strainer and then spun down at 30×g for 4 min at 4° C. Primary hepatocytes were cultured in William's Medium E (Thermo Fisher; Waltham, MA) supplemented with 1% penicillin/streptomycin and 10% fetal bovine serum. […] Cultured primary hepatocytes were maintained in a cell culture incubator at 37° C. with 5% CO2.
In primary hepatocytes, values of OCR were measured using a Seahorse XF24 extracellular flux analyzer (Agilent Technologies; Santa Clara, CA). […] OCR values were measured before and after the exposure of cells to palmitic acid conjugated with fatty acid-free BSA (300 μM) and normalized with total live cell count calculated through staining with NucRed Live probe (Thermo Fisher; Waltham, MA) measured at 715 nm emission and 623 nm excitation using a SpectraMax i3X plate reader (Molecular Devices; San Jose; CA).

[5] = molecular target: full-length human Acot12 (Homo sapiens, UniProt Q8WYK0); experiment: biochemical
full-length human Acot12, sequence (Q8WYK0 whole entry): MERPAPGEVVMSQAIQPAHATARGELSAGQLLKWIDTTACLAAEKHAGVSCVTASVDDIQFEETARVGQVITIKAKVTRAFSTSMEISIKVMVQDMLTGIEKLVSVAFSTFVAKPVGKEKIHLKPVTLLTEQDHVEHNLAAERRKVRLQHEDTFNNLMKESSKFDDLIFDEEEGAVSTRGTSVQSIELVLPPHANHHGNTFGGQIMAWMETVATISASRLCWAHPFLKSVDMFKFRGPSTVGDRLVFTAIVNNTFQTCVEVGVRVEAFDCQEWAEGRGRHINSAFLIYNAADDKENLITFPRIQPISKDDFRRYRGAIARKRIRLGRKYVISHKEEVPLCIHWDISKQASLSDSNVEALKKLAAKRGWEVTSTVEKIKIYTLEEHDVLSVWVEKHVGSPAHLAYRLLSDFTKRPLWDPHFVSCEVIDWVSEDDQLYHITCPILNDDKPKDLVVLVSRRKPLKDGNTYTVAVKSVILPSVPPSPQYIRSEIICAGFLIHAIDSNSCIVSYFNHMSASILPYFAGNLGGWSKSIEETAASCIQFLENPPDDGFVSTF
Experimental: as §3

[6] = system: primary brown adipocytes cultured from A-Them1Tg mice; experiment: Oxygen consumption rates (OCR) in primary brown adipocytes; format: cell-based, mouse
Experimental: Primary brown adipocytes from 4- to 6-w old wild type and A-Them1Tg mice were isolated, cultured and differentiated as described (Okada et al., 2016). In brief, BAT tissues harvested from 5- to 7-w old mice were pooled, minced and digested with collagenase B (Sigma-Aldrich; St. Louis, MO), and dispersed in growth medium [DMEM/F12 containing 4.5 g/L glucose, 0.1 mM pyruvate, 10 mM HEPES (Thermo Fisher; Waltham, MA) supplemented with 1% penicillin/streptomycin, 1% GlutaMAX (Thermo Fisher; Waltham, MA) and 20% fetal bovine serum]. […] Upon achieving confluence, pre-adipocytes were induced to differentiate for 8 d by culturing for the first 48 h in differentiation medium [DMEM/F12 containing 4.5 g/L glucose, 0.1 mM pyruvate, 10 mM HEPES (Thermo Fisher; Waltham, MA) supplemented with 1% penicillin/streptomycin, 1% GlutaMAX (Thermo Fisher; Waltham, MA), 10% fetal bovine serum, bovine insulin (5 μg/mL; Thermo Fisher; Waltham, MA) and rosiglitazone (1 μM; Sigma Aldrich; St. Louis, MO)] supplemented with dexamethasone (5 μM; Sigma Aldrich; St. Louis, MO) and 3-isobutyl-1-methylxanthine (0.5 mM; Sigma Aldrich; St. Louis, MO) and differentiation medium thereafter. On differentiation d 6 to 8, the adipocyte differentiation media was supplemented with L-(−)-norepinephrine (+) bitartrate (Calbiochem; EMD Millipore; Billerica, MA). Primary brown adipocytes were maintained in a cell culture incubator at 37° C. with 5% CO2.
In primary brown adipocytes on d 8 of differentiation, values of OCR were measured in the presence or absence of compounds using a Seahorse XF96 extracellular flux analyzer (Agilent Technologies; Santa Clara, CA). […] OCR values were measured before and after the exposure of cells to NE (1 μM) and normalized with total live cell count calculated through staining with NucRed Live probe (Thermo Fisher; Waltham, MA) measured at 715 nm emission and 623 nm excitation using a SpectraMax i3X plate reader (Molecular Devices; San Jose; CA).

[7] = molecular target: T3, recombinant His-tagged human Them1 (Homo sapiens, UniProt Q8WXI4); experiment: Assay for reversibility of Them1 inhibition (dialysis); format: biochemical; settings: compounds […], C14-CoA 25 μM, 18 h dialysis
T3 construct: Reaction labeling recombinant full-length Them1; made in house; host or cells: E. coli Shuffle T7
T3 sequence (Q8WXI4 14-594 isoform Q8WXI4-2 limits assumed): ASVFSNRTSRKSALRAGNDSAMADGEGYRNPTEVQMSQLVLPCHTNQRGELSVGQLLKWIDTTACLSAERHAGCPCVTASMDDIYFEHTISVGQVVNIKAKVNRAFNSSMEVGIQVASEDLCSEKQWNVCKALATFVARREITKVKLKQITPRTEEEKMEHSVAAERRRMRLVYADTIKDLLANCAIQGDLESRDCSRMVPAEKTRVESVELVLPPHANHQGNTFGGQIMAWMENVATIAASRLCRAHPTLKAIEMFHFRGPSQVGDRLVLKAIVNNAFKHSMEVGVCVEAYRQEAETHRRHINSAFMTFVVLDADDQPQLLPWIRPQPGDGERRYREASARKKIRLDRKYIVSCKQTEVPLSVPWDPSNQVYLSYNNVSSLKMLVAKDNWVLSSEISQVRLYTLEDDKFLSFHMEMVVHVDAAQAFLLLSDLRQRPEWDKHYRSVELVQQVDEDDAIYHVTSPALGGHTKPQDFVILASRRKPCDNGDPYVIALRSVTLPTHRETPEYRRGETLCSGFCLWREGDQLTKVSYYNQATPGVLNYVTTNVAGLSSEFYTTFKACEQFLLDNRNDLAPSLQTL
Experimental: Three buffer changes were performed over the extent of the 18 h dialysis. Post-dialysis reactions were incubated with fresh C14-CoA (25 μM) for 60 min at 22° C. Ebselen (Sigma Aldrich; St. Louis, MO) was used as a (−) control.

[8] = system: primary hepatocytes; experiment: Glucose production in primary hepatocytes; format: cell-based, mouse; settings: compound 33 μM, pyruvate 2 mM, lactate 20 mM
Experimental: as §1
Rates of glucose production were determined as previously described with modifications (Kawano et al., 2014). Primary hepatocytes cultured from wild type, L-Them1Tg and Them1^−/' mice were serum-starved in Medium 199 (Thermo Fisher; Waltham, MA) for 16 h and then washed twice with PBS. […] Glucose concentrations in the media were measured enzymatically through a commercial kit according to the manufacturer's instructions using a NEO plate reader (BioTek, Winooski, VT).

[9] = molecular target: T4, full-length Them1 (Homo sapiens, UniProt Q8WXI4); experiment: Microscale thermophoresis binding, full-length Them1; settings: in words
T4 sequence (Q8WXI4 14-594 isoform Q8WXI4-2 limits assumed): T3 sequence (Q8WXI4 14-594 isoform Q8WXI4-2 limits assumed)
Experimental: as §2, §3

[10] = molecular target: T5, Them1 START domain (Homo sapiens, UniProt Q8WXI4); experiment: Microscale thermophoresis binding, START domain; settings: in words
T5 sequence (Q8WXI4 339-594 isoform Q8WXI4-2): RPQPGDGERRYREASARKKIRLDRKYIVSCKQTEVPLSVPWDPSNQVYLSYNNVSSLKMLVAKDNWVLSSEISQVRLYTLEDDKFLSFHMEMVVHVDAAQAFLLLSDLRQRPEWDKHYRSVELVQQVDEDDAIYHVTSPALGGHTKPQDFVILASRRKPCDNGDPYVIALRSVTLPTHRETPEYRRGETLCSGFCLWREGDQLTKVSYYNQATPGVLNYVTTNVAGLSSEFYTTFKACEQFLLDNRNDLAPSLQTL
Source text: A synthetic gene encoding the START domain was cloned into a pNIC28-Bsa4 bacterial expression vector (Novagen, EMD Biosciences; Madison, WI), which introduced an in-frame N-terminal His6 fusion containing a tobacco etch virus protease cleavage site to facilitate tag removal. The pNIC28-Bsa4-START domain plasmid was co-transformed into E. coli BL21 (DE3) (New England Biolabs; Ipswich, MA) competent cells with a pG-Tf2 vector (encoding groES-gorEL-tig chaperones) and then grown to an A600 of 0.5-0.7 in terrific broth. Under conditions of shaking (250 rpm) at 18° C., chaperones were induced by the addition of 5 ng/mL tetracycline HCl for 60 min followed by START domain induction upon the addition of 0.5 mM isoproyl β-D-thiogalactoside for ˜18 h. The bacteria were harvested by centrifugation, and then lysed by sonication with 20 mM Tris-Cl (pH 7.4), 500 mM NaCl, 25 mM imidazole, 5% glycerol, lysozyme, Dnase A, 0.1% Triton X-100, 5 mM β-mercaptoethanol and 100 μM phenylmethylsulfonyl fluoride. Following centrifugation of the bacterial lysate, recombinant START was purified by FPLC using a His affinity column (HisTrap HP column; GE Healthcare; Waukesha, WI). The soluble fraction containing recombinant START was applied to the column after equilibration with 20 mM Tris-Cl (pH 7.4), 500 mM NaCl, 25 mM imidazole and 5% glycerol, and then washed with the same buffer. Recombinant START was eluted from the HisTrap HP column using 20 mM Tris-Cl (pH 7.4), 500 mM NaCl, 500 mM imidazole and 5% glycerol followed by tobacco etch virus protease-mediated His-tag cleavage at 4° C. overnight with simultaneous dialysis into 20 mM Tris-Cl (pH 7.4), 500 mM NaCl and 5% glycerol. Recombinant START was further purified using a Superdex column (HiLoad 16/60 Superdex 75 column; GE Healthcare; Waukesha, WI) in 20 mM Tris-Cl (pH 7.4), 500 mM NaCl and 5% glycerol. Assessment of purity, protein concentration and storage of single use aliquots of recombinant START were performed as described above for recombinant Them1.
Reaction labeling recombinant full-length Them1, Them1l-ΔSTART, START or Acot12 with Monolith RED-Tris-NTA (NanoTemper Technologies; San Francisco, CA) were performed according to the manufacturer's instructions in buffer containing PBS plus 0.5% Tween-20 for 60 min at 22° C. with a molar dye: protein ratio=1:1. […] Working concentrations of compounds were prepared by diluting in microscale thermophoresis buffer. […] Fluorescence was measured using a Monolith NT.115 instrument (NanoTemper Technologies; San Francisco, CA) at 22° C. with instrument parameters adjusted to 40% LED power and medium microscale thermophoresis power. […]

[11] = molecular target: T4, full-length Them1; experiment: biochemical
Experimental: as §2, §3

Row | Compound | inhibition of mouse Them1 activity compared to human Them1 [1] | binding to Them1-ΔSTART [2] | Kd [2] [µM] | CC50 at 48 h [3] [µM] | OCR following palmitate stimulation in L-Them1Tg hepatocytes [4] | OCR following palmitate stimulation in Them1−/− hepatocytes [4] | Kd [5] [µM] | OCR in A-Them1Tg brown adipocytes, reversal of Them1 suppression ([6]; NE-stimulated, compounds at 10 μM (FIGS. 3B-C, 8B-C)) | Them1 activity after overnight dialysis (reversibility of inhibition) [7] | glucose production in L-Them1Tg hepatocytes [8] | Kd / binding affinity to full-length Them1 compared to the parent U1 compound [9] | binding affinity to the START domain compared to the parent U1 compound [10] | OCR in A-Them1Tg brown adipocytes, reversal of Them1 suppression ([6]; compounds at their in vitro IC50 concentrations, 30 min, NE 1 μM, vs wild type (DMSO)) | Kd [11] [µM]
1 | CCOC(=O)N1CCN(C(c2cccs2)c2c(C)[nH]c3ccccc23)CC1 (stereo not drawn) [Compound U1, ethyl 4-((2-methyl-1H-indol-3-yl)(thiophen-2-yl)methyl)piperazine-1-carboxylate] | comparable potencies | lacked the capacity to bind; also recorded: lacked binding | > 125 | > 125 | reversed this suppressive effect of Them1 | did not increase OCR values | > 125 | reversed the suppressive effects of Them1 activity | restored Them1 activity | reduced |  |  |  | 
2 | Cc1[nH]c2ccccc2c1C(c1cccs1)N1CCN(C(=O)C(C)C)CC1 (stereo not drawn) [Compound U11, 2-methyl-1-(4-((2-methyl-1H-indol-3-yl)(thiophen-2-yl)methyl)piperazin-1-yl)propan-1-one] |  | did not bind | > 125 | > 125 |  |  | > 125 |  |  |  | tighter | tighter | reversed the suppressive effects of Them1 on values of OCR | 0.87

Reference: US20230286955A1, “INHIBITORS OF THEM1” (Cornell University, priority 2022, published 2023)
